Source: US9173383B2, “Recombinant non-human mammalian model for hepatitis infection and immunopathogenesis” (The University of North Carolina at Chapel Hill, priority 2008, dated 2015)

B1: chicken ovalbumin protein: chicken ovalbumin protein used as immunization antigen (protein, UniProt P01012 2-386, looked up)
Ovalbumin: GSIGAASMEFCFDVFKELKVHHANENIFYCPIAIMSALAMVYLGAKDSTRTQINKVVRFDKLPGFGDSIEAQCGTSVNVHSSLRDILNQITKPNDVYSFSLASRLYAEERYPILPEYLQCVKELYRGGLEPINFQTAADQARELINSWVESQTNGIIRNVLQPSSVDSQTAMVLVNAIVFKGLWEKAFKDEDTQAMPFRVTEQESKPVQMMYQIGLFRVASMASEKMKILELPFASGTMSMLVLLPDEVSGLEQLESIINFEKLTEWTSSNVMEERKIKVYLPRMKMEEKYNLTSVLMAMGITDVFSSSANLSGISSAESLKISQAVHAAHAEINEAGREVVGSAEAGVDAASVSEEFRADHPFLFCIKHIATNAVLFFGRCVSP

Tests used:
[1] = tested on: FKBP-Casp8; details: 0.25, 1, 4 and 10 mg/kg, peritoneal; cited from earlier work
[2] = tested on: HepG2 cells; experiment: Hepatocyte-specific apoptosis with Alb-FKBP-Casp8 in HepG2 cells (7AAD FACS); type: cell-based; details: AP20187 2 nM, 24 hours
Text: (§1) FIG. 5. Generation of Alb-FKBP-Casp8 transgenic DKO (AFC8/DKO) mice. (A) The Alb-FKBP-Casp8 transgene structure and AFC8/DKO-hu HSC/Hep mice: the FKBP2Casp8 fusion gene was cloned into the liver specific transgenic construct with the Albumin promoter (see Heckel et al. 1990. Neonatal bleeding in transgenic mice expressing urokinase-type plasminogen activator. Cell 62:447-56). (B) Hepatocyte-specific apoptosis with expression from the albumin promoter/enhancer. […] As described in FIG. 6B, the FKBP-Casp8 gene controlled by CMV enhancer or the hepatocyte-specific albumin promoter was co-transfected with GFP-expressing plasmid in 293T and HepG2 cells. Transfected cells were cultured for 30 hours and AP20187 dimerizer (2 nM) was added to the culture medium. The cells were then cultured for 24 hours, harvested, stained with 7AAD, and analyzed for GFP and 7AAD. GFP+ cells were analyzed for 7AAD uptake (dead cells). (C) Generation of Alb-FKBP-Casp8/DKO transgenic mice. Standard transgenic mouse procedure was used to inject the transgene construct into fertilized DKO embryos. In the initial screening of 11 mice from two injections, one transgenic founder was identified. […]

[3] = tested on: 293T cells; experiment: Hepatocyte-specific apoptosis with Alb-FKBP-Casp8 in 293T cells (7AAD FACS); type: cell-based; details: AP20187 2 nM, 24 hours
Text: as §1

[4] = tested on: murine hepatocytes; experiment: Dimer injection in AFC8/DKO transgenic mice: mouse liver damage (plasma ALT, H&E); type: in vivo
Experimental: (§2) FIG. 9. […] AFC8/DKO transgenic mice were treated with AP20187 (5 μg/g). A. Plasma ALT levels were measured at 24 hr and 72 hr (and 3-6 days, not shown) post treatment. […] Two non-TG DKO mice were used as controls (dashed line, background). B. Livers were harvested at 24 h after the 2nd injection and H&E stained. […] V, vein. C. […] AFC8/DKO or DKO mice were treated with AP20187 (5 μg/g) one hour prior to intra-splenic injection of human hepatocytes (2×10e6/mouse). Sera were collected at 80 days post transfer and human albumin levels were determined by ELISA. […] AFC8/DKO transgenic mice were treated with AP20187 (5 μg/g). Plasma ALT levels were measured at 24 hr and 72 hr (and 3-6 days, not shown) post treatment (FIG. 9A). […] Two non-TG DKO mice were used as controls (dashed line, background). Livers were harvested at 24 h after the 2nd injection and H&E stained (FIG. 9B). […] V, vein. […] AFC8/DKO or DKO mice were treated with AP20187 (5 μg/g) one hour prior to intra-splenic injection of human hepatocytes (2×10e6/mouse). Sera were collected at 80 days post transfer and human albumin levels were determined by ELISA.

[5] = tested on: 293T cells transfected with FKBP-Caspase 8; experiment: Inducible cell killing in 293T cells co-transfected with eGFP and CMV-promoter driven FKBP-Casp8 (7AAD FACS); type: cell-based
Text: FIG. 4. Generation of the FKBP-Casp8 fusion gene with inducible cell killing activity. (A) Inducible activation of Caspase 8 through dimerization. The chemical dimerizer AP20187 causes dimerization/activation of Caspase 8 through interaction of adjacent FKBP binding sites. M, myristoylation signal; FKBP, FK506 binding domain; caspase, human activated caspase 8 (fragment Ser217-Aps479. ref) was cloned into the pC4M-Fv2E vector (Ariad Pharmaceuticals) to express the FKBP2-Casp8 fusion protein whose activation is induced by dimerization with AP20187. (B-C) Dose-dependent induction of apoptosis in cells transfected with FKBP-Caspase 8. 293T cells were co-transfected with plasmids expressing eGFP alone, or with CMV-promoter driven FKBP-Casp8. Transfected cells were cultured for 30 hours and then various amounts of AP20187 dimerizer was added. The cells were then cultured for 24 hours, harvested, stained with 7AAD, and analyzed by FACS for GFP and 7AAD. (B) GFP+ (transfected) cells were gated and the percentage of dead cells (7AAD+) was analyzed. (C) GFP− (untransfected bystander) cells were similarly analyzed. At least 3 independent experiments are repeated.
The FKBP-Caspase8 fusion gene with inducible cell killing activity was constructed (FIG. 4; and Chang et al. 2003. Activation of procaspases by FK506 binding protein-mediated oligomerization. Sci STKE 2003:PL1). […] Therefore, FKBP-Casp8 activation by AP20187 kills target cells expressing the gene but not bystander cells, an important point for depleting specific target cells in vivo.

[6] = tested on: human hepatocyte engraftment; experiment: Human hepatocyte engraftment in AP20187-treated AFC8/DKO mice (human albumin ELISA); type: in vivo, mouse
Experimental: as §2

[7] = tested on: human T and B cells; experiment: Ova vaccination of DKO-hu mice, Ova-specific T and B cell responses; type: in vivo, mouse; details: 3 weeks post vaccination
Experimental: FIG. 1. Long-term, stable human hemato-lymphopoiesis in HSC-DKO Mice. Human fetal liver CD34+ cells were injected intra-hepatically in newborn (1-3 days old) DKO mice. At 12-50 weeks post transplant, the human CD45^+, murine CD45^− cells in PBMC, lymph node (LN), spleen, bone marrow and thymus were analyzed by multi-color FACS. A: Human CD45 reconstitution (12-16 weeks old) in 5 cohorts of DKO-hu HSC mice from 5 independent donor fetal livers. Shown is average % human CD45+ cells in PB of reconstituted DKO-hu HSC mice. Error bars indicate standard errors of each cohort (n=numbers of mice/cohort). B: Human cells reconstitution in PBMC of the transplanted mice. […] Human T cells from a DKO-hu mouse at 50 weeks are analyzed for expression of CD45RO and CD69. […] Human T proliferation is measured by 3-H thymidine incorporation for 16 hr after 3 days post co-culture. […] H: DKO-hu mice are vaccinated with Ova protein and Ova-specific T cell recall response is measured at 3 weeks post vaccination. […] Human T cell proliferation is measured as above.
Human T cells are negatively selected by both mouse MHC/APC and human MHC/APC because both human and mouse antigen presenting cells (APC) are detected in the mouse thymus (see Traggiai et al. 2004. Development of a human adaptive immune system in cord blood cell-transplanted mice. Science 304:104-7). […]

[8] = tested on: Ova-specific human IgG; experiment: Immunization of DKO-hu HSC mice, Ova-specific human IgG induction; type: in vivo; details: DKO-hu HSC mouse
Text: FIG. 8. Antigen-Fc fusion proteins give enhanced antigen-specific IgG induction in vivo.
Human IgG+ B cells were increased by activating human T cells in the spleen in vitro with anti-CD3/CD28 mAb (FIG. 7). […] Ova-specific human IgG induction is enhanced by using the fusion protein between the same chicken ovalbumin protein with the Fc domain of human IgG (FIG. 8).

[9] = various amounts of AP20187, 24 hours

Molecule	inducing Caspase8 activation and target cell depletion [1]	toxicity in mice [1]	cell killing (7AAD uptake of GFP+ cells) with Alb-FKBP-Casp8 [2]	cell killing (7AAD uptake of GFP+ cells) with Alb-FKBP-Casp8 [3]	liver H&E staining ([4]; 24 h after the 2nd injection, TG livers)	mouse liver damage ([4]; AFC8/DKO mice, 5 μg/g)	plasma ALT levels ([4]; second injection 6 days after 1st injection, 5 μg/g)	effect on cells transfected with only GFP expressing gene [5]	death of GFP+/FKBP-Casp8+ (transfected) cells, 7AAD+ [5, 9]	death of GFP− (untransfected bystander) cells [5, 9]	human albumin levels in sera (ELISA) ([6]; 5 μg/g one hour prior to intra-splenic human hepatocytes, 80 days post transfer)	enhanced human hepatocyte engraftment ([6]; dimer injection in AFC8/DKO mice)	enhanced human hepatocyte engraftment ([6]; one injection of dimerizers) [×]	Ova-specific human T and B cell responses [7]	Ova-specific human IgG [8]
CC[C@H](C(=O)N1CCCC[C@H]1C(=O)O[C@H](CCc1ccc(OC)c(OC)c1)c1cccc(OCC(=O)NCC(CNC(=O)COc2cccc([C@@H](CCc3ccc(OC)c(OC)c3)OC(=O)[C@@H]3CCCCN3C(=O)[C@@H](CC)c3cc(OC)c(OC)c(OC)c3)c2)CN(C)C)c1)c1cc(OC)c(OC)c(OC)c1 [AP20187]	effective	No toxicity is observed	functions in HepG2	not 293T cells	Accumulation of fat droplets	transient mouse liver damage	elevated ALT levels	no detectable effect	led to death of GFP+/FKBP-Casp8+ cells	not GFP− bystander cells	Enhanced human albumin levels	50-100 ×	100	–	–
B1	–	–	–	–	–	–	–	–	–	–	–	–	–	induces Ova-specific human T and B cell responses	very low levels
